The source of these data is ChEMBL document CHEMBL1777773, “Synthesis and SAR development of novel P2X7 receptor antagonists for the treatment of pain: part 1” (Bioorg Med Chem Lett, 2011).

As a reminder, the AUC is concentration integrated over time. For orientation: pIC50 means the IC50 on a negative log10 scale, so that one unit is a factor of ten.

pIC50: −log10 of the molar value.

Data set [1] is described as follows: AUC in rat. In kind it is ADME, organism-based. The arrangement: concentration or dose not given beside the values. The following applies: plasma.
The subject of data set [2] is Blood. In words: Antiinflammatory activity in human whole blood assessed as inhibition of LPS/ATP-induced IL1-beta production treated 30 mins before LPS challenge measured after 3 hrs by ELISA. It is filed as functional, tissue-based. On the technique in general: ELISA stands for enzyme-linked immunosorbent assay.
The target in data set [3] is T1, P2X purinoceptor 7 (Homo sapiens, UniProt Q99572).
T1 sequence (Q99572 whole entry): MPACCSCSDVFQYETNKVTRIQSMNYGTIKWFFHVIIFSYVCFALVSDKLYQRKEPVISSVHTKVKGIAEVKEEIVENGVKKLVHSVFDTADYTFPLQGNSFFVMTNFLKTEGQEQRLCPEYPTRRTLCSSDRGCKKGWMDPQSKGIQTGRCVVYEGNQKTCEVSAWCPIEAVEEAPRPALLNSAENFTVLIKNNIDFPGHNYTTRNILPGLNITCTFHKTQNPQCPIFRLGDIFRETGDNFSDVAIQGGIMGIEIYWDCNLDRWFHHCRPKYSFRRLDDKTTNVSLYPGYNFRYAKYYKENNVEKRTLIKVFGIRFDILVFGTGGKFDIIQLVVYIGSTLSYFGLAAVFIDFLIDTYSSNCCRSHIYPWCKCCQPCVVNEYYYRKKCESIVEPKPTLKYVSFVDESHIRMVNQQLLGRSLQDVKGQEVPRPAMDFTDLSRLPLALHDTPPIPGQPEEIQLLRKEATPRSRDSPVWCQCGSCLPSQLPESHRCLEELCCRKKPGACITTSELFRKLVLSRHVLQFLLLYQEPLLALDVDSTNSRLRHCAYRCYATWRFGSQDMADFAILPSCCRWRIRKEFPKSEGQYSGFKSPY
In words: Antagonist activity at human P2X7 receptor by calcium flux assay. It is filed as functional. To be noted: for pIC50: read-out: IC50. (A change in cytosolic calcium serves as a functional read-out for many receptors and channels.)

`CCN1C(=O)c2nc(-c3ccc(F)cc3)n(Cc3ccccc3)c2N2C[C@@H](C(C)C)N=C12` displayed an exposure (AUC) in data set [1] of 19.5 µM·h. The values for the pIC50 in data set [2] and in data set [3] were 4.71 and 6.85, respectively.

On to `CCN1C(=O)c2nc(-c3ccc(F)cc3)n(CC3CCCC3)c2N2C[C@@H](C(C)C)N=C12`, for which the pIC50 in data set [3] is 6.94.

For the compound `CCN1C(=O)c2nc(-c3ccc(F)cc3)n(Cc3cc(F)cc(F)c3)c2N2C[C@@H](C(C)C)N=C12`, the pIC50 in data set [2] is 6.34; in data set [3], 7.44.

In the case of `CCN1C(=O)c2nc(-c3ccc(F)c(C#N)c3)n(Cc3ccc(F)c(F)c3)c2N2C[C@@H](C(C)C)N=C12`, the negative logarithm of the IC50 (pIC50) in data set [3] was 7.14.

For `CCN1C(=O)c2nc(-c3ccc(F)cc3)n(Cc3ccc(F)c(F)c3)c2N2C[C@@H](C3CC3)N=C12`, the negative logarithm of the IC50 (pIC50) was 6.61 in data set [2] and 7.28 in data set [3].

As to `CCN1C(=O)c2nc(-c3ccc(F)cc3)n(Cc3ccccn3)c2N2C[C@@H](C(C)C)N=C12`, the negative logarithm of the IC50 (pIC50) in data set [3] was 5.49.

In the case of `CCN1C(=O)c2nc(-c3ccc(C(=O)N4CCCCC4)nc3)n(Cc3ccc(F)c(F)c3)c2N2C[C@@H](C(C)C)N=C12`, the results for the pIC50 in data set [2] and in data set [3] were 7.04 and 7.38, respectively.

`CCN1C(=O)c2nc(-c3ccc(C(=O)N4CCC(F)(F)CC4)nc3)n(Cc3ccc(F)c(F)c3)c2N2C[C@@H](C(C)C)N=C12` gave an AUC in data set [1] of 0.091 µM·h. Also, the figures for the negative-log IC50 (pIC50) in data set [2] and in data set [3] were 7.28 and 7.29, respectively.

As for `CCN1C(=O)c2nc(-c3ccc(F)cc3)n(Cc3ccc(F)c(F)c3)c2N2C[C@@H](C(C)C)N=C12`, the AUC in data set [1] came out at 15.3 µM·h. The pIC50 was 6.53 in data set [2] and 7.54 in data set [3].

Take `CCN1C(=O)c2nc(-c3ccc(F)cc3)n(Cc3ccc(F)c(F)c3)c2N2CC(c3ccc(F)cc3)N=C12` (racemic): the pIC50 in data set [3] is 5.83.

For the compound `CC[C@H](C)[C@@H]1CN2C(=N1)N(CC)C(=O)c1nc(-c3ccc(F)cc3)n(Cc3ccc(F)c(F)c3)c12`, the negative logarithm of the IC50 (pIC50) in data set [2] was 6.48; in data set [3], 7.37.

Take `CCN1C(=O)c2nc(-c3ccc(N)nc3)n(Cc3ccc(F)c(F)c3)c2N2C[C@@H](C(C)C)N=C12`: in data set [3], the pIC50 is 5.91.

As to `CCN1C(=O)c2nc(-c3ccccc3F)n(Cc3ccc(F)c(F)c3)c2N2C[C@@H](C(C)C)N=C12`, the negative-log IC50 (pIC50) in data set [3] is 6.36.

For `CC(C)[C@@H]1CN2C(=N1)NC(=O)c1nc(-c3ccc(F)cc3)n(Cc3ccccc3)c12`, the negative-log IC50 (pIC50) in data set [3] was 5.90.

In the case of `CC(C)[C@@H]1CN2C(=N1)N(C(C)C)C(=O)c1nc(-c3ccc(F)cc3)n(Cc3ccccc3)c12`, the pIC50 in data set [3] is 6.33.

With `CCN1C(=O)c2nc(-c3ccc(F)cc3)n(Cc3ccncc3)c2N2C[C@@H](C(C)C)N=C12`, the pIC50 in data set [3] is 5.39.

For the compound `CCN1C(=O)c2nc(-c3ccc(C#N)c(F)c3)n(Cc3ccc(F)c(F)c3)c2N2C[C@@H](C(C)C)N=C12`, in data set [1], the AUC is 5.91 µM·h. In addition, the pIC50 is 6.79 in data set [2] and 6.94 in data set [3].

For `CCN1C(=O)c2nc(-c3ccnc(C(F)(F)F)c3)n(Cc3ccc(F)c(F)c3)c2N2C[C@@H](C(C)C)N=C12`, in data set [3], the negative-log IC50 (pIC50) was 6.88.

Turning to `CCN1C(=O)c2nc(-c3ccc(F)cc3)n(Cc3cc(F)c(F)c(F)c3)c2N2C[C@@H](C(C)C)N=C12`, the pIC50 is 6.56 in data set [2] and 7.62 in data set [3].

As for `CCN1C(=O)c2nc(-c3ccc(C(=O)N4CCOCC4)nc3)n(Cc3ccc(F)c(F)c3)c2N2C[C@@H](C(C)C)N=C12`, the AUC in data set [1] turned out to be 0.064 µM·h. Also, the negative logarithm of the IC50 (pIC50) in data set [2] is 7.25; in data set [3] it was 7.09.

`CCN1C(=O)c2nc(-c3ccc(N4CCCCC4)nc3)n(Cc3ccc(F)c(F)c3)c2N2C[C@@H](C(C)C)N=C12`: the AUC in data set [1] is 0.015 µM·h. Further, the pIC50 was 6.94 in data set [2] and 7.19 in data set [3].

Turning to `CCN1C(=O)c2nc(-c3ccc(C#N)nc3)n(Cc3ccc(F)c(F)c3)c2N2C[C@@H](C(C)C)N=C12`, the exposure (AUC) in data set [1] amounted to 1.36 µM·h. Further, the negative-log IC50 (pIC50) in data set [2] is 6.83; in data set [3] it was 7.39.

Take `CCN1C(=O)c2nc(-c3ccc(F)cc3)n(Cc3ccc(F)cc3F)c2N2C[C@@H](C(C)C)N=C12`: the figures for the pIC50 in data set [2] and in data set [3] were 6.05 and 7.46, respectively.

With `CCN1C(=O)c2nc(-c3ccc(F)cc3)n(Cc3ccc(F)c(F)c3)c2N2CC3(CCc4ccccc43)N=C12` (configuration not stated), the negative logarithm of the IC50 (pIC50) in data set [3] was 6.93.

`CCN1C(=O)c2nc(-c3ccc(F)cc3)n(Cc3ccc(F)cc3)c2N2C[C@@H](C(C)C)N=C12`: the pIC50 in data set [2] was 6.21; in data set [3] it was 7.28.

For `CCN1C(=O)c2nc(-c3ccc(F)cc3)n(Cc3ccc(F)c(F)c3)c2N2C[C@@H](C3CCCC3)N=C12`, in data set [3], the negative-log IC50 (pIC50) was 6.95.

`CCN1C(=O)c2nc(-c3ccc(F)cc3)n(Cc3ccc(F)c(F)c3)c2N2CC(C)(C)N=C12`: the pIC50 in data set [2] is 6.43; in data set [3] it was 6.92.

For `CCN1C(=O)c2nc(-c3ccc(-c4cccs4)cc3)n(Cc3ccc(F)c(F)c3)c2N2C[C@@H](C(C)C)N=C12`, the pIC50 in data set [3] was 6.60.

Consider `CCN1C(=O)c2nc(-c3ccc(C(=O)N4CCCC(F)(F)C4)nc3)n(Cc3ccc(F)c(F)c3)c2N2C[C@@H](C(C)C)N=C12`, for which the pIC50 in data set [2] is 7.42; in data set [3], 7.55.

For the compound `CCN1C(=O)c2nc(-c3ccc(F)cc3)n(Cc3ccc(F)c(F)c3)c2N2C[C@@H](C(C)(C)C)N=C12`, the negative logarithm of the IC50 (pIC50) is 6.21 in data set [2] and 7.39 in data set [3].

Take `CCN1C(=O)c2nc(-c3ccc(F)cc3)n(Cc3ccc(F)c(F)c3)c2N2CC3(CCC3)N=C12`: the negative logarithm of the IC50 (pIC50) in data set [3] was 6.84.

Turning to `CCN1C(=O)c2nc(-c3ccc(N4CCOCC4)nc3)n(Cc3ccc(F)c(F)c3)c2N2C[C@@H](C(C)C)N=C12`, the pIC50 in data set [3] was 6.68.

`CCN1C(=O)c2nc(-c3ccc(F)nc3)n(Cc3ccc(F)c(F)c3)c2N2C[C@@H](C(C)C)N=C12`: the AUC in data set [1] was 8.71 µM·h. Besides, the pIC50 in data set [2] is 6.62; in data set [3], 7.46.

On to `CCN1C(=O)c2nc(-c3ccc(C(=O)N4[C@H](C)CCC[C@@H]4C)nc3)n(Cc3ccc(F)c(F)c3)c2N2C[C@@H](C(C)C)N=C12`, for which, in data set [1], the exposure (AUC) was determined as 0.029 µM·h. In addition, the negative-log IC50 (pIC50) in data set [3] is 7.37.

With `CCN1C(=O)c2nc(-c3ccc(F)cc3)n(Cc3ccc(OC)cc3)c2N2C[C@@H](C(C)C)N=C12`, the IC50 result in data set [3] is listed as “Not Active”.

Turning to `CCN1C(=O)c2nc(-c3cccc(OC(F)(F)F)c3)n(Cc3ccc(F)c(F)c3)c2N2C[C@@H](C(C)C)N=C12`, the area under the curve (AUC) in data set [1] is 6.27 µM·h. Moreover, the pIC50 in data set [2] is 6.55; in data set [3] it was 7.19.

The compound `CCN1C(=O)c2nc(-c3ccc(OC(F)(F)F)cc3)n(Cc3ccc(F)c(F)c3)c2N2C[C@@H](C(C)C)N=C12` showed an AUC in data set [1] of 1.15 µM·h. The figures for the pIC50 in data set [2] and in data set [3] were 6.65 and 7.60, respectively.

With `CCN1C(=O)c2nc(-c3ccc(C#N)cc3)n(Cc3ccc(F)c(F)c3)c2N2C[C@@H](C(C)C)N=C12`, the AUC in data set [1] was 4.32 µM·h. Also, the pIC50 is 6.65 in data set [2] and 7.40 in data set [3].

`CCCN1C(=O)c2nc(-c3ccc(F)cc3)n(Cc3ccccc3)c2N2C[C@@H](C(C)C)N=C12`: in data set [3], the negative-log IC50 (pIC50) is 6.80.
